Biological target: GDP-bound KRAS protein (aa 1-169), containing both G12C and C118A amino acid substitutions (Homo sapiens, UniProt P01116, C118A/G12C)
Assay: Coupled nucleotide exchange assay (SOS-mediated, AlphaScreen)
Type: biochemical
Conditions: 5 min compound pre-incubation

Sequence of GDP-bound KRAS protein (aa 1-169), containing both G12C and C118A amino acid substitutions (P01116 1-169 isoform P01116-2 G12C/C118A): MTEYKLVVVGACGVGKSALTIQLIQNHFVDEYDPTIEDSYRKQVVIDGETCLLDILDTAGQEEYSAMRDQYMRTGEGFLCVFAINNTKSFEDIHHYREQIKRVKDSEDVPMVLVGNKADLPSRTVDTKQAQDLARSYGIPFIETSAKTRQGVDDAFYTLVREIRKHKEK

Structure (SMILES)	Coupled exchange IC50 (5 min)
C=CC(=O)N1CCN(c2nc(=O)n(-c3ccccc3C(C)C)c3nc(-c4cc(C(F)(F)F)nn4C)c(Cl)cc23)[C@@H](C)C1 [Example 67-2, 6-chloro-4-((2S)-2-methyl-4-(2-propenoyl)-1-piperazinyl)-7-(1-methyl-3-(trifluoromethyl)-1H-pyrazol-5-yl)-1-(2-(2-propanyl)phenyl)pyrido[2,3-d]pyrimidin-2(1H)-one]	6.45 | nda μM
C=CC(=O)N1CCN(c2nc(=O)n(-c3ccccc3C(C)C)c3nc(-c4c(C)cnn4C)c(Cl)cc23)[C@@H](C)C1 [Example 67-3, 6-chloro-7-(1,4-dimethyl-1H-pyrazol-5-yl)-4-((2S)-2-methyl-4-(2-propenoyl)-1-piperazinyl)-1-(2-(2-propanyl)phenyl)pyrido[2,3-d]pyrimidin-2(1H)-one]	2.87 | nda μM
C=CC(=O)N1CCN(c2nc(=O)n(-c3ccccc3C(C)C)c3nc(N4CCCCC4C)c(Cl)cc23)[C@@H](C)C1 (some centres unmarked) [Example 69-5]	5.64 | nda μM
C=CC(=O)N1CCN(c2nc(=O)n(-c3ccccc3C(C)C)c3nc(N(C)C(C)C)c(Cl)cc23)[C@@H](C)C1 [Example 69-6, 6-chloro-7-(methyl(2-propanyl)amino)-4-((2S)-2-methyl-4-(2-propenoyl)-1-piperazinyl)-1-(2-(2-propanyl)phenyl)pyrido[2,3-d]pyrimidin-2(1H)-one]	13.7 | nda μM
C=CC(=O)N1CCN(c2nc(=O)n(-c3ccccc3C(C)C)c3nc(N(C)CCO)c(Cl)cc23)[C@@H](C)C1 [Example 69-7, 6-chloro-7-((2-hydroxyethyl)(methyl)amino)-4-((2S)-2-methyl-4-(2-propenoyl)-1-piperazinyl)-1-(2-(2-propanyl)phenyl)pyrido[2,3-d]pyrimidin-2(1H)-one]	48.5 | nda μM
C=CC(=O)N1CCN(c2nc(=O)n(-c3c(C)cccc3C(C)C)c3nc(-c4nc(N)ccc4Cl)c(F)cc23)[C@@H](C)C1 [Example 71-1, 7-(6-Amino-3-chloro-2-pyridinyl)-6-fluoro-1-(2-methyl-6-(2-propanyl)phenyl)-4-((2S)-2-methyl-4-(2-propenoyl)-1-piperazinyl)pyrido[2,3-d]pyrimidin-2(1H)-one]	1.12 | nda μM
C=CC(=O)N1CCN(c2nc(=O)c(-c3ccccc3C)c3cc(-c4ccccc4Br)c(C)nn23)CC1 [Example 81-1, 3-(2-Bromophenyl)-2-methyl-5-(2-methylphenyl)-8-(4-(2-propenoyl)-1-piperazinyl)-6H-pyrimido[1,6-b]pyridazin-6-one]	172 | nda μM
C=CC(=O)N1CCN(c2nc(=O)c(-c3ccccc3C(C)C)c3cc(-c4ccccc4F)c(C)nn23)CC1 [Example 81-2, 3-(2-fluorophenyl)-2-methyl-5-(2-(2-propanyl)phenyl)-8-(4-(2-propenoyl)-1-piperazinyl)-6H-pyrimido[1,6-b]pyridazin-6-one]	14.1 | nda μM
C=CC(=O)N1CCN(c2nc(=O)c(-c3ccccc3C(C)C)c3cc(-c4ccccc4F)c(C)nn23)[C@@H](C)C1 [Example 81-3, 3-(2-fluorophenyl)-2-methyl-8-((2S)-2-methyl-4-(2-propenoyl)-1-piperazinyl)-5-(2-(2-propanyl)phenyl)-6H-pyrimido[1,6-b]pyridazin-6-one]	2.87 | nda μM
C=CC(=O)N1C[C@@H](C)N(c2nc(=O)n(-c3c(C(C)C)ncnc3C(C)C)c3nc(-c4ccccc4F)c(Cl)cc23)[C@H](C)C1 [Example 87-3]	17.3 | nda μM
C=CC(=O)N1CCN(c2nc(=O)n(-c3ccccc3C(F)(F)F)c3cc(-c4ccccc4F)c(Cl)cc23)[C@@H](C)C1 [Example 93, 6-Chloro-7-(2-fluorophenyl)-4-((2S)-2-methyl-4-(2-propenoyl)-1-piperazinyl)-1-(2-(trifluoromethyl)phenyl)-2(1H)-quinazolinone]	1.59 | nda μM
C=CC(=O)N1CCN(c2nc(=O)n(-c3c(CC)cccc3CC)c3nc(-c4ccccc4F)c(Cl)cc23)[C@@H](C(=O)O)C1 [Example 96, (2R)-1-(6-Chloro-1-(2,6-diethylphenyl)-7-(2-fluorophenyl)-2-oxo-1,2-dihydropyrido[2,3-d]pyrimidin-4-yl)-4-(2-propenoyl)-2-piperazinecarboxylic acid]	4.85 | nda μM
C=CC(=O)N1CCN(c2nc(=O)n(-c3ccccc3)c3nc(-c4c(O)cccc4F)c(Cl)cc23)[C@@H](C)C1 [Example 100, 6-Chloro-7-(2-fluoro-6-hydroxyphenyl)-4-((2S)-2-methyl-4-(2-propenoyl)-1-piperazinyl)-1-phenylpyrido[2,3-d]pyrimidin-2(1H)-one]	3.45 | nda μM
C=CC(=O)N1CCN(c2nc(=O)n(-c3ccccc3C(C)C)c3nc(-c4ccccc4F)c(CC)nc23)[C@@H](C)C1 [Example 108, 6-Ethyl-7-(2-fluorophenyl)-4-((2S)-2-methyl-4-(2-propenoyl)-1-piperazinyl)-1-(2-(2-propanyl)phenyl)-2(1H)-pteridinone]	1 | nda μM
C=CC(=O)N1CCN(c2nc(=O)n(-c3ccccc3C(C)C)c3nc(-c4ccccc4F)c(OC)nc23)[C@@H](C)C1 [Example 109, 7-(2-Fluorophenyl)-6-methoxy-4-((2S)-2-methyl-4-(2-propenoyl)-1-piperazinyl)-1-(2-(2-propanyl)phenyl)-2(1H)-pteridinone]	1.32 | nda μM
C=CC(=O)N1CCN(c2nc(=O)[nH]c3nc(-c4c(O)cccc4F)c(Cl)cc23)[C@@H](C)C1 [Example 119, 6-Chloro-7-(2-fluoro-6-hydroxyphenyl)-4-((2S)-2-methyl-4-(2-propenoyl)-1-piperazinyl)pyrido[2,3-d]pyrimidin-2(1H)-one]	10.8 | nda μM
C=CC(=O)N1CCN(c2cc(=O)n(CC(C)(C)C)c3nc(-c4ccccc4F)ccc23)[C@@H](C)C1 [Example 120, 1-(2,2-Dimethylpropyl)-7-(2-fluorophenyl)-4-((2S)-2-methyl-4-(2-propenoyl)-1-piperazinyl)-1,8-naphthyridin-2(1H)-one]	71.1 | nda μM
C=CC(=O)N1CCN(c2cc(=O)n(CC(C)(C)C)c3nc(-c4ccccc4F)c(Cl)cc23)[C@@H](C)C1 [Example 121, 6-chloro-1-(2,2-dimethylpropyl)-7-(2-fluorophenyl)-4-((2S)-2-methyl-4-(2-propenoyl)-1-piperazinyl)-1,8-naphthyridin-2(1H)-one]	14.2 | nda μM
C=CC(=O)N1CCN(c2cc(=O)n(CC(C)(C)C)c3nc(-c4ccccc4F)c(Cl)cc23)CC1 [Example 122, 6-Chloro-1-(2,2-dimethylpropyl)-7-(2-fluorophenyl)-4-(4-(2-propenoyl)-1-piperazinyl)-1,8-naphthyridin-2(1H)-one]	5.29 | nda μM
C=CC(=O)N1CCN(c2cc(=O)n(CC(C)(C)C)c3nc(-c4ccccc4F)ccc23)CC1 [Example 123, 1-(2,2-Dimethylpropyl)-7-(2-fluorophenyl)-4-(4-(2-propenoyl)-1-piperazinyl)-1,8-naphthyridin-2(1H)-one]	38.6 | nda μM
C=CC(=O)N1CC=C(c2cc(=O)n(CC(C)(C)C)c3nc(-c4ccccc4F)c(Cl)cc23)CC1 [Example 124, 6-Chloro-1-(2,2-dimethylpropyl)-7-(2-fluorophenyl)-4-(1-(2-propenoyl)-1,2,3,6-tetrahydro-4-pyridinyl)-1,8-naphthyridin-2(1H)-one]	6.22 | nda μM
C=CC(=O)N1CCC(c2cc(=O)n(CC(C)(C)C)c3nc(-c4ccccc4F)c(Cl)cc23)CC1 [Example 125, 6-Chloro-1-(2,2-dimethylpropyl)-7-(2-fluorophenyl)-4-(1-(2-propenoyl)-4-piperidinyl)-1,8-naphthyridin-2(1H)-one]	35.4 | nda μM
C=CC(=O)N1CCN(c2cc(=O)n(-c3ccccc3C(C)C)c3nc(-c4ccccc4F)ccc23)[C@@H](C)C1 [Example 127, 7-(2-fluorophenyl)-4-((2S)-2-methyl-4-(2-propenoyl)-1-piperazinyl)-1-(2-(2-propanyl)phenyl)-1,8-naphthyridin-2(1H)-one]	27.2 | nda μM
C=CC(=O)N1CCN(c2nc(OC)c(-c3ccccc3C)c3nc(-c4ccccc4F)c(Cl)cc23)[C@@H](C)C1 [Example 134, 1-((3S)-4-(3-Chloro-2-(2-fluorophenyl)-7-methoxy-8-(2-methylphenyl)-1,6-naphthyridin-5-yl)-3-methyl-1-piperazinyl)-2-propen-1-one]	1.95 | nda μM
C=CC(=O)N1CCN(c2nc(=O)n(-c3c(C)ccnc3C(C)C)c3nc(-c4ccccc4F)c(C)nc23)[C@@H](C)C1 [Example 143, 7-(2-Fluorophenyl)-6-methyl-1-(4-methyl-2-(2-propanyl)-3-pyridinyl)-4-((2S)-2-methyl-4-(2-propenoyl)-1-piperazinyl)-2(1H)-pteridinone]	0.497 | nda μM

Same assay, conditions: 2 h compound pre-incubation

Structure (SMILES)	Coupled exchange IC50 (2 h)
C=CC(=O)N1CCN(c2nc(=O)n(-c3c(CC)cccc3CC)c3nc(-c4c(O)cccc4F)ccc23)[C@@H](C)C1 [Example 107, 1-(2,6-Diethylphenyl)-7-(2-fluoro-6-hydroxyphenyl)-4-((2S)-2-methyl-4-(2-propenoyl)-1-piperazinyl)pyrido[2,3-d]pyrimidin-2(1H)-one]	nda | 3.14 μM
C=CC(=O)N1CCN(c2nc(=O)n(-c3ccccc3C(F)(F)F)c3cc(Br)c(Cl)cc23)CC1 [Example 128, 7-Bromo-6-chloro-4-(4-(2-propenoyl)-1-piperazinyl)-1-(2-(trifluoromethyl)phenyl)-2(1H)-quinazolinone]	nda | 18 μM

Same assay, conditions: read-out: Coupled exchange IC50 (5 min); 5 min compound pre-incubation

Structure (SMILES)	IC50 [µM]
C=CC(=O)N1CCN(c2nc(CO)c(-c3ccccc3C(C)C)c3nc(-c4ccccc4F)c(Cl)cc23)CC1 [Example 85-1]	6.34
C=CC(=O)N1CCN(c2nc(=O)n(-c3ccccc3C(C)C)c3nc(-c4ccc[nH]c4=O)c(Cl)cc23)[C@@H](C)C1 [Example 97, 6-Chloro-4-((2S)-2-methyl-4-(2-propenoyl)-1-piperazinyl)-7-(2-oxo-1,2-dihydro-3-pyridinyl)-1-(2-(2-propanyl)phenyl)pyrido[2,3-d]pyrimidin-(1H)-one]	39

Source: patent US11090304B2 (Amgen Inc., priority 2018, dated 2021)
